{"source": "patent US20250009649A1", "about": "“Implants for Loss of Taste and Smell” (Cyrano Therapeutics, Inc., priority 2021, published 2025)", "key": {"[1]": {"system": "patient who had loss of taste and smell from COVID-19", "assay": "Side effects reported during intranasal theophylline treatment", "format": "in vivo, human", "conditions": "80 μg theophylline via nasal spray once per day, 3 months", "protocol": "(§1) Theophylline was administered to a patient who had loss of taste and smell from COVID-19. A formulation containing 80 μg of theophylline was administered via two actuations from nasal spray device once per day. Prior to the initial administration of theophylline, a baseline smell test was performed. A follow-up smell test was performed 3 months after the initial administration. […] The patient's detection threshold (DT) and recognition threshold (RT) for pyridine (Pyr), nitrobenzene (NO2B), thiophene (Thio) and amyl acetate (AA) was determined before treatment (pre) and after treatment (3M). In all four odorant tests, the patient's detection threshold and recognition threshold improved. An improvement of 1 bottle unit means that a patient could detect and/or recognize an odorant that was 10 times lower in concentration, when compared to baseline. For example, the recognition threshold (RT) of AA improved by 8 bottle units, also equivalent to an improvement of 8 orders of magnitude. In this case, the patient could detect a concentration of AA that was 10^8 lower in concentration. Bottle unit numbers that are 5 or lower are considered to be in the range of normal."}, "[2]": {"system": "patient who had loss of taste and smell from COVID-19", "assay": "Psychophysical smell test, forced-choice, three-stimuli, stepwise-staircase technique (detection and recognition thresholds for four odors)", "format": "in vivo, human", "from_the_text": "The Patient initially reported their sensory dysfunction as either loss of taste (i.e., flavor) and/or smell function. This subjective response was documented by objective psychophysical measurements of olfactory function administered to each patient by use of a forced-choice, three-stimuli, stepwise-staircase technique in a fixed, controlled design (1, 2). Efficacy of this technique and results of testing were previously documented in a double-blind clinical trial (2). Four odors were used; they were pyridine (dead-fish odor), nitrobenzene (bitter-almond odor), thiophene (petroleum-like odor) and amyl acetate (banana-oil odor). Detection thresholds (DT), and recognition thresholds (RT) values for each odor were determined as previously described (1, 2). Thresholds were converted into bottle units (BU) as previously described (2) and results reported as M of correct responses for each odor in each treatment group. References: (1) Henkin, R. I. Evaluation and treatment of human olfactory dysfunction, in Otolaryngology (English, G. M. Ed.), Lip pincott, Philadelphia, 1993, Vol. 2, pp. 1-86. (2) Henkin, R. I., Schecter, P. J., Friedewald, W. T., DeMets, D. L., Raff, M. S. A double blind study of the effects of zinc sulfate on taste and smell dysfunction. Amer. J. Med. Sci. 1976; 272: 285-299.\nas §1"}, "[3]": {"conditions": "3 months after initial administration, 80 μg theophylline nasal spray once per day, Pre value 10"}, "[4]": {"conditions": "3 months after initial administration, 80 μg theophylline nasal spray once per day, Pre value 11"}, "[5]": {"conditions": "3 months after initial administration, 80 μg theophylline nasal spray once per day, Pre value 12"}}, "data": [{"smiles": "Cn1c(=O)c2[nH]cnc2n(C)c1=O", "note": "[theophylline]", "values": [{"measurement": "side effects", "setting": "[1]", "value": "No side effects"}, {"measurement": "DT Thio (detection threshold, thiophene)", "setting": "[2]; [3]", "value": 4, "unit": "bottle units"}, {"measurement": "RT Thio (recognition threshold, thiophene)", "setting": "[2]; [3]", "value": 4, "unit": "bottle units"}, {"measurement": "DT AA (detection threshold, amyl acetate)", "setting": "[2]; [4]", "value": 4, "unit": "bottle units"}, {"measurement": "DT NO2B (detection threshold, nitrobenzene)", "setting": "[2]; [4]", "value": 9, "unit": "bottle units"}, {"measurement": "RT Pyr (recognition threshold, pyridine)", "setting": "[2]; [4]", "value": 7, "unit": "bottle units"}, {"measurement": "DT Pyr (detection threshold, pyridine)", "setting": "[2]; 3 months after initial administration, 80 μg theophylline nasal spray once per day, Pre value 11, 5 or lower is normal", "value": 7, "unit": "bottle units"}, {"measurement": "RT AA (recognition threshold, amyl acetate)", "setting": "[2]; [5]", "value": 4, "unit": "bottle units"}, {"measurement": "RT NO2B (recognition threshold, nitrobenzene)", "setting": "[2]; [5]", "value": 9, "unit": "bottle units"}, {"measurement": "improvement of recognition threshold (RT) of AA", "setting": "[2]; 3 months vs baseline, 80 μg theophylline nasal spray once per day", "value": 8, "unit": "bottle units"}, {"measurement": "factor by which the detectable concentration of AA was lower", "setting": "[2]; 3 months vs baseline, 1 bottle unit = 10 times lower concentration", "value": "10^8"}, {"measurement": "detection threshold and recognition threshold in all four odorant tests", "setting": "[2]; 3 months vs baseline, pyridine, nitrobenzene, thiophene, amyl acetate", "value": "improved"}]}]}
